According to the NIST ThermoML archive (doi:10.1021/acs.jced.8b00591):

How the values were obtained:
[1] = 101.3 kPa, Liquid; for viscosity: Falling or rolling sphere viscometry; for mass density: Vibrating tube method
[2] = xn = mol fraction of the nth substance listed; conditions: 101.3 kPa, Liquid, x2 = 0; for viscosity: Falling or rolling sphere viscometry; for mass density: Vibrating tube method

CCCC[n+]1ccn(C)c1.O=S(=O)([N-]S(=O)(=O)C(F)(F)F)C(F)(F)F
[1]
Conditions | mass density [kg/m3] | viscosity [mPa·s]
288.15 K | 1445.66 | 78.02
293.15 K | 1440.84 | 61.32
298.15 K | 1436.01 | 48.93
303.15 K | 1431.21 | 39.84
308.15 K | 1426.43 | 32.91
313.15 K | 1421.66 | 27.56
318.15 K | 1416.91 | 23.33
323.15 K | 1412.17 | 19.97
328.15 K | 1407.45 | 17.41

CCn1cc[n+](C)c1.O=S(=O)([N-]S(=O)(=O)C(F)(F)F)C(F)(F)F
[1]
Conditions | mass density [kg/m3] | viscosity [mPa·s]
288.15 K | 1528.55 | 49.41
293.15 K | 1523.47 | 40.36
298.15 K | 1518.39 | 33.52
303.15 K | 1513.34 | 28.35
308.15 K | 1508.3 | 24.15
313.15 K | 1503.28 | 20.76
318.15 K | 1498.27 | 17.9
323.15 K | 1493.28 | 15.93
328.15 K | 1488.31 | 14.26

CCOC(=O)OCC [diethyl carbonate]
[1]
Conditions | mass density [kg/m3] | viscosity [mPa·s]
288.15 K | 980.49 | 0.871
293.15 K | 974.91 | 0.812
298.15 K | 969.3 | 0.757
303.15 K | 963.66 | 0.708
308.15 K | 958 | 0.664
313.15 K | 952.32 | 0.625
318.15 K | 946.6 | 0.589
323.15 K | 940.86 | 0.556
328.15 K | 935.08 | 0.525

CCOC(=O)OCC [diethyl carbonate] + CCCC[n+]1ccn(C)c1.O=S(=O)([N-]S(=O)(=O)C(F)(F)F)C(F)(F)F
[2]
Conditions | mass density [kg/m3] | viscosity [mPa·s]
288.15 K | 980.49 | 0.871
293.15 K | 974.91 | 0.812
298.15 K | 969.3 | 0.757
303.15 K | 963.66 | 0.708
308.15 K | 958 | 0.664
313.15 K | 952.32 | 0.625
318.15 K | 946.6 | 0.589
323.15 K | 940.86 | 0.556
328.15 K | 935.08 | 0.525

CCOC(=O)OCC [diethyl carbonate] + CCn1cc[n+](C)c1.O=S(=O)([N-]S(=O)(=O)C(F)(F)F)C(F)(F)F
[2]
Conditions | mass density [kg/m3] | viscosity [mPa·s]
288.15 K | 980.49 | 0.871
293.15 K | 974.91 | 0.812
298.15 K | 969.3 | 0.757
303.15 K | 963.66 | 0.708
308.15 K | 958 | 0.664
313.15 K | 952.32 | 0.625
318.15 K | 946.6 | 0.589
323.15 K | 940.86 | 0.556
328.15 K | 935.08 | 0.525

COC(=O)OC [dimethyl carbonate]
[1]
Conditions | mass density [kg/m3] | viscosity [mPa·s]
288.15 K | 1076.39 | 0.669
293.15 K | 1069.86 | 0.626
298.15 K | 1063.27 | 0.587
303.15 K | 1056.65 | 0.552
308.15 K | 1050 | 0.52
313.15 K | 1043.29 | 0.498
318.15 K | 1036.57 | 0.472
323.15 K | 1029.83 | 0.45
328.15 K | 1023.03 | 0.429

COC(=O)OC [dimethyl carbonate] + CCCC[n+]1ccn(C)c1.O=S(=O)([N-]S(=O)(=O)C(F)(F)F)C(F)(F)F
[2]
Conditions | mass density [kg/m3] | viscosity [mPa·s]
288.15 K | 1076.39 | 0.669
293.15 K | 1069.86 | 0.626
298.15 K | 1063.27 | 0.587
303.15 K | 1056.65 | 0.552
308.15 K | 1050 | 0.52
313.15 K | 1043.29 | 0.498
318.15 K | 1036.57 | 0.472
323.15 K | 1029.83 | 0.45
328.15 K | 1023.03 | 0.429

COC(=O)OC [dimethyl carbonate] + CCn1cc[n+](C)c1.O=S(=O)([N-]S(=O)(=O)C(F)(F)F)C(F)(F)F
[2]
Conditions | mass density [kg/m3] | viscosity [mPa·s]
288.15 K | 1076.39 | 0.669
293.15 K | 1069.86 | 0.626
298.15 K | 1063.27 | 0.587
303.15 K | 1056.65 | 0.552
308.15 K | 1050 | 0.52
313.15 K | 1043.29 | 0.498
318.15 K | 1036.57 | 0.472
323.15 K | 1029.83 | 0.45
328.15 K | 1023.03 | 0.429
